Measurements: patent publication EP1614683B1, “Indazole compounds and pharmaceutical compositions for inhibiting protein kinases, and methods for their use” (priority 1999, dated 2001)
Read-outs that look alike come from different tables or passages of the source.

Tests used:
in vitro = in vitro ADME, human; conditions: human liver microsomes, 5 µM test compound, 37 °C, 2 h
Outline: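 HLM diluted to 5 mg/mL in 100 mM KPO4, preincubated 10 min at 37 °C with NADPH-regenerating system. Compound (5 µM final) incubated at 37 °C in triplicate, sampled at 0 and 2 h into ice-cold acetonitrile, then LC-MS analysis.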

[1] = system: VEGF dependent retinal vascular development; assay: In vivo assay of retinal vascular development in neonatal rats; parameters: species or system rat; conditions: Model P8, intravitreal, vehicle PEG/water 50:50
Outline: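 Neonatal rats given compound by intravitreal injection, vehicle usually 50% PEG 400/50% 300 mM sucrose, with vehicle in contralateral eye. Retinas removed six days later, ADPase-stained and flat-mounted; stained vessel area quantified by imaging and expressed as percent regression versus vehicle eye.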

human FGF-R1 = human FGF-R1 (Homo sapiens, UniProt P11362, C488A/C584S/L457V); assay: FGF-R spectrophotometric assay; format: biochemical; conditions: Table 1; compound concentration 1 µM; read-out: FGF-P* (% inhibition)
Chain of human FGF-R1 (P11362 456-766 L457V/C488A/C584S): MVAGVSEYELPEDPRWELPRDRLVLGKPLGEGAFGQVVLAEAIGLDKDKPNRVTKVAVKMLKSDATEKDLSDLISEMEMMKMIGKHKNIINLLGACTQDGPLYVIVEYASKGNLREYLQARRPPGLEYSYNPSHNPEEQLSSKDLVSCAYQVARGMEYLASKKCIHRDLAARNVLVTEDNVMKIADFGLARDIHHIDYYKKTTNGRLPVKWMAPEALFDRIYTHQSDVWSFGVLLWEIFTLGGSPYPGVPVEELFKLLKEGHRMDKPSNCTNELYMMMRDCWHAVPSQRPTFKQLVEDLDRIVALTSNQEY
Description: The spectrophotometric assay was carried out as described above for VEGF-R2, except for the following changes in concentration: FGF-R = 50 nM, ATP = 2 mM, and poly(E4Y1) =15 mM.

[2] = system: lung cancer cells (line MV522); assay: Cancer cell proliferation (MV522) assay; format: cell-based; conditions: MV522; Table 1; read-out: MV522 IC50
Outline: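 MTT reduction read-out was taken 72 h after addition of test agents, with no prior serum starvation. Cells were plated beforehand at two thousand per well in RPMI1640 containing 10% FBS and 2 mM glutamine and allowed one day to adhere.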

[3] = target: unphosphorylated VEGF-R2Δ50 (Homo sapiens, UniProt P35968, DEL940-989/E990V); assay: biochemical; conditions: read-out: FLVK ** (% inhibition)
Chain of unphosphorylated VEGF-R2Δ50 (P35968 with tags, fused parts or gaps DEL940-989/E990V limits assumed): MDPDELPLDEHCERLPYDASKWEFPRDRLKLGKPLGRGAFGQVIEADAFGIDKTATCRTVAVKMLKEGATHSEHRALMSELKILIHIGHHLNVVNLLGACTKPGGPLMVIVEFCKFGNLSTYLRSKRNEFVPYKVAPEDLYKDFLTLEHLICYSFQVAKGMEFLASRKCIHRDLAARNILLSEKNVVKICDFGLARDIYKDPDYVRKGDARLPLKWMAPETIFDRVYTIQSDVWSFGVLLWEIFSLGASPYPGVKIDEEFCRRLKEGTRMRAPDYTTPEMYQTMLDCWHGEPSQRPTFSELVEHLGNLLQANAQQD

[4] = vehicle PEG400:H2O pH 2.3 30:70
in vivo = conditions: mouse, plasma, pH 2.3
[5] = target: phosphorylated VEGF-R2Δ50 (Homo sapiens, UniProt P35968, DEL940-989/E990V); assay: biochemical; conditions: read-out: FLVK -P** (% inhibition)
Chain of phosphorylated VEGF-R2Δ50 (P35968 with tags, fused parts or gaps DEL940-989/E990V limits assumed): as above

[6] = system: VEGF dependent retinal neovascularization; assay: Neonatal rat model of retinopathy of prematurity; format: in vivo; conditions: Model ROP, intravitreal, 10 mg/ml, vehicle PEG/water 70:30

## CCONC(=O)c1ccccc1Sc1ccc2c(/C=C/c3ccccn3)n[nH]c2c1 [Reference Example 35(dd), 6-[2-(ethoxycarbamoyl)phenylsufanyl]-3-E-[2-(pyridin-2-yl)ethenyl]-1H-indazole]
In vitro
  % remain (HLM, 2 h): 26%
[1]; 5 mg/ml
  Initial Evaluation: ++/+++ var

## CCn1nc(C)cc1C(=O)Nc1cc(C(=O)c2ccc3c(/C=C/c4ccccn4)n[nH]c3c2)ccc1C [Reference Example 41(ee), 6-[3-((1-Ethyl-3-methyl-1H-pyrazol-5-yl)carboxamido)-4-methylbenzoyl]-3-E-[2-(pyridin-2-yl)ethenyl]-1H-indazole]
In vitro
  % remain (HLM, 2 h): 47%
Human FGF-R1
  inhibition at 1 µM: 94%
[2]
  IC50: 9.4 µM

## C#CCNC(=O)c1ccccc1Sc1ccc2c(/C=C/c3ccccn3)n[nH]c2c1 [Reference Example 35(cc), 6-[2-(2-Propynylcarbamoyl)phenylsulfany]-3-E-[2-(pyridin-2-yl)ethenyl]-1H-indazole]
In vitro
  % remain (HLM, 2 h): 31%
Human FGF-R1
  inhibition at 1 µM: 74%
[3]
  inhibition at 0.05 µM: 89%

## CC(C)ONC(=O)c1ccccc1Sc1ccc2c(/C=C/c3ccccn3)n[nH]c2c1 [Reference Example 35(k)]
In vitro
  % remain (HLM, 2 h): 14%
Human FGF-R1
  inhibition at 1 µM: 34%
[3]
  inhibition at 0.05 µM: 85%

## CCCn1nc(C)cc1C(=O)Nc1cccc(C(=O)c2ccc3c(/C=C/c4ccccn4)n[nH]c3c2)c1 [Reference Example 41(r)]
In vitro
  % remain (HLM, 2 h): 83%
Human FGF-R1
  inhibition at 1 µM: 92%
[3]
  inhibition at 0.05 µM: 100%

## O=C(NNc1ccccn1)c1ccccc1Sc1ccc2c(/C=C/c3ccccn3)n[nH]c2c1 [Reference Example 35(n), 6-[2-(N^2-(pyrid-2-ylhydrazino)carbonyl)phenylsulfanyl]-3-E-[2-(pyridin-2-yl)ethenyl]-1H-indazole]
In vitro
  % remain (HLM, 2 h): 47%
[2]
  IC50: 5.1 µM

## CCn1nc(C)cc1C(=O)Nc1cccc(Oc2ccc3c(/C=C/c4ccccn4)n[nH]c3c2)c1 [Reference Example 31(d), 6-[3-((1-Ethyl-3-methyl-1H-pyrazol-5-yl)carboxamido)phenoxy]-3-E-[2-(pridin-2-yl)ethenyl]-1H-indazole]
In vitro
  % remain (HLM, 2 h): 110%
[4]; IP, 25 mg/kg
  T1/2: 5.3 h
[4]; PO, 10 mg/kg
  T1/2: 3.1 h
[4]; PO, 25 mg/kg
  T1/2: 1.9 h
[4]; PO, 50 mg/kg
  T1/2: 39.3 h
In vivo; ip, 25 mg/kg
  AUC: 238 µg·h/mL
In vivo; po, 10 mg/kg
  AUC: 49.1 µg·h/mL
In vivo; po, 25 mg/kg
  AUC: 204 µg·h/mL
In vivo; po, 50 mg/kg
  AUC: 431 µg·h/mL
[2]
  IC50: 5.2 µM
[3]
  inhibition at 0.05 µM: 96%

## CCn1nc(C)cc1C(=O)Nc1cccc(C(=O)c2ccc3c(/C=C/c4ccccn4)n[nH]c3c2)c1 [Reference Example 41(a), 6-[3-((1-Ethyl-3-methyl-1H-pyrazol-5-yl)carboxamido)benzoyl]. 3-E-[2-(pyridin-2-yl)ethenyl]-1H-indazole]
In vitro
  % remain (HLM, 2 h): 96%
[5]
  inhibition at 0.05 µM: 94%
[6]
  % Inhibition: 64%
  Initial Evaluation: +++ (three pluses give to retinas with near total regression (approximately 75% or greater))
[1]; 0.5 mg/ml
  % Inhibition: 0%
